Patent US20240425519A1, “NOVEL SPIROCYCLIC COMPOUNDS AS KLHDC2 LIGANDS” (University of Washington, priority 2021, published 2024)

Each compound was assayed against KLHDC2 (Homo sapiens (Human), UniProt Q9Y2U9) (assay: AlphaScreen competition assay for ligand binding to KLHDC2 (GST-KLHDC2 vs biotinylated 12 aa SelK degron peptide)). Details: formula (II) compounds; 0.12 nM GST-KLHDC2, 1.7 nM biotinylated 12 aa SelK peptide; triplicate; read-out: KLHDC2 binding activities IC50.
Description: The following is a description of an assay for evaluating ligand binding to KLHDC2.
Amplified Luminescence Proximity Homogenous Assay (AlphaScreen) was used to monitor protein-protein interaction of two tagged components that are immobilized on beads. One component was GST-KLHDC2 (E3) and the other one was biotinylated-SelK peptide with a length of 12 amino acids (Substrate peptide). When the two components bind, they bring the Alpha beads in close proximity to each other that results in a luminescent signal.
AlphaScreen assays for determining and measuring protein-protein interactions were performed using EnSpire reader (PerkinElmer). GST-tagged KLHDC2 was attached to anti-GST AlphaScreen acceptor beads. Synthetic biotinylated 12 aa SelK degron peptide (Bio-Synthesis, Inc.) was immobilized to streptavidin-coated AlphaScreen donor beads. The donor and acceptor beads were brought into proximity by the interactions between the SelK peptide and KLHDC2. Excitation of the donor beads by a laser beam of 680 nm promotes the formation of singlet oxygen. When an acceptor bead is in close proximity, the singlet oxygen reacts with thioxene derivatives in the acceptor beads and causes the emission of 520-620 nm photons, which are detected as the binding signal. If the beads are not in close proximity to each other, the oxygen will return to its ground state and the acceptor beads will not emit light. Competition assays were performed in the presence of representative binding compounds, which were titrated at various concentrations.
The experiments were conducted with 0.12 nM of GST-KLHDC2 and 1.7 nM biotinylated 12 aa SelK peptide in the presence of 5 μg/ml donor and acceptor beads in a buffer of 25 mM HEPES, pH 7.5, 100 mM NaCl, 1 mM TCEP, 0.1% Tween-20, and 0.05 mg/ml Bovine Serum Albumin. The concentrations of the compounds used in competition assays ranged from 0.1 nM to 25 mM. The experiments were done in triplicate. IC50 values were determined using non-linear curve fitting of the dose response curves generated with Prism 4 (GraphPad).

KLHDC2, sequence (Q9Y2U9 whole entry): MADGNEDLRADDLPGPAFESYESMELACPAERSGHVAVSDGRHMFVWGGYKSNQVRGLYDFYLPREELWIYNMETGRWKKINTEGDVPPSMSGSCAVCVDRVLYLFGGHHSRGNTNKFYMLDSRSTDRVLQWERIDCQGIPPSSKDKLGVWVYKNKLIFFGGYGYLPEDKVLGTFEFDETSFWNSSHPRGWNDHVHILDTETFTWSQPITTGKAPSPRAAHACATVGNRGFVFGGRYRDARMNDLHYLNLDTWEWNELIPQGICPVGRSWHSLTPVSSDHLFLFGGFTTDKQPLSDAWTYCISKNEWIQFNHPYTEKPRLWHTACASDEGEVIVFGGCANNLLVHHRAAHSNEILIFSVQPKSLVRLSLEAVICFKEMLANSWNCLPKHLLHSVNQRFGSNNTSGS

Row | Structure (SMILES) | IC50 [µM]
1 | CC(C(=O)N1CCN(C)C2(CCC(=O)N(CC(=O)O)CC2)C1)c1ccc(O)cc1 (stereo not shown) [AC1062, 2-(4-(2-(4-hydroxyphen-yl)propanoyl)-1-methyl-10-oxo-1,4,9-triazaspiro-[5.6]dodecan-9-yl)acetic acid] | 19.8
2 | CN1CCN(C(=O)Nc2ccccc2)CC12CCC(=O)N(CC(=O)O)CC2 (stereo not shown) [AC1050, 2-(1-methyl-10-oxo-4-(phenylcarbamoyl)-1,4,9-triazaspiro[5.6]dodecan-9-yl)acetic acid] | 33.6
3 | CN1CCN(C(=O)C2CN(Cc3ccccn3)C2)CC12CCC(=O)N(CC(=O)O)CC2 (stereo not shown) [AC1069, 2-(1-methyl-10-oxo-4-(1-(pyridin-2-ylmethyl)azeti-dine-3-carbonyl)-1,4,9-triazaspiro[5.6]dodecan-9-yl)acetic acid] | 4.6
4 | CC(=O)N1CCC[C@@H]1C(=O)N1CCN(C)C2(CCC(=O)N(CC(=O)O)CC2)C1 (stereo partly drawn) [AC1072, 2-(4-(acetyl-D-prolyl)-1-methyl-10-oxo-1,4,9-triazaspiro[5.6]dodecan-9-yl)acetic acid] | 12.5
5 | CN1CCN(C(=O)[C@@H]2CCN2C(=O)OC(C)(C)C)CC12CCC(=O)N(CC(=O)O)CC2 (stereo partly drawn) [AC1065, 2-(4-((S)-1-(tert-butoxy-carbonyl)azetidine-2-carbonyl)-1-methyl-10-oxo-1,4,9-triazaspiro[5.6]-dodecan-9-yl)acetic acid] | 496
6 | CN1CCN(C(=O)c2cnn(-c3ccccc3)c2)CC12CCC(=O)N(CC(=O)O)CC2 (stereo not shown) [AC1064, 2-(1-methyl-10-oxo-4-(1-phenyl-1H-pyrazole-4-carbonyl)-1,4,9-triaza-spiro[5.6]dodecan-9-yl)-acetic acid] | 148
7 | CN1CCN(C(=O)NCc2ccccc2)CC12CCC(=O)N(CC(=O)O)CC2 (stereo not shown) [AC1051, 2-(4-(benzylcarbamoyl)-1-methyl-10-oxo-1,4,9-triazaspiro[5.6]dodecan-9-yl)acetic acid] | 45.9
8 | CN1CCN(C(=O)C(C)(C)Oc2ccccc2)CC12CCC(=O)N(CC(=O)O)CC2 (stereo not shown) [AC1046, 2-(1-methyl-4-(2-methyl-2-phenoxypropanoyl)-10-oxo-1,4,9-triazaspiro[5.6]-dodecan-9-yl)acetic acid] | 202
9 | CN1CCN(C(=O)C2CC2)CC12CCC(=O)N(CC(=O)O)CC2 (stereo not shown) [AC1052, 2-(4-(cyclopropanecar-bonyl)-1-methyl-10-oxo-1,4,9-triazaspiro[5.6]-dodecan-9-yl)acetic acid] | 100
10 | CC(=O)N1CCC(C(=O)N2CCN(C)C3(CCC(=O)N(CC(=O)O)CC3)C2)CC1 (stereo not shown) [AC1068, 2-(4-(1-acetylpiperidine-4-carbonyl)-1-methyl-10-oxo-1,4,9-triazaspiro-[5.6]dodecan-9-yl)acetic acid] | 191
11 | CN1CCN(C(=O)C2CC(F)(F)C2)CC12CCC(=O)N(CC(=O)O)CC2 (stereo not shown) [AC1034, 2-(4-(3,3-difluorocyclo-butane-1-carbonyl)-1-methyl-10-oxo-1,4,9-triazaspiro[5.6]dodecan-9-yl)acetic acid] | 295
12 | CN1CCN(C(=O)[C@H]2C[C@@H](NC(=O)OC(C)(C)C)C2)CC12CCC(=O)N(CC(=O)O)CC2 (stereo partly drawn) [AC1047, 2-(4-((1,3-trans)-3-((tert-butoxycarbonyl)amino)-cyclobutane-1-carbonyl)-1-methyl-10-oxo-1,4,9-triazaspiro[5.6]dodecan-9-yl)acetic acid] | 493

Second part, the compound after the results:

Row | IC50 [µM] | Structure (SMILES)
13 | 56.4 | CC(Cc1ccccc1)C(=O)N1CCN(C)C2(CCC(=O)N(CC(=O)O)CC2)C1 (stereo not shown) [AC1033, 2-(1-methyl-4-(2-methyl-3-phenylpropanoyl)-10-oxo-1,4,9-triazaspiro[5.6]-dodecan-9-yl)acetic acid]
14 | 65.9 | CN1CCN(C(=O)C2CC(=O)N(Cc3ccccc3)C2)CC12CCC(=O)N(CC(=O)O)CC2 (stereo not shown) [AC1066, 2-(4-(1-benzyl-5-oxo-pyrrolidine-3-carbonyl)-1-methyl-10-oxo-1,4,9-triazaspiro[5.6]dodecan-9-yl)acetic acid]
15 | 32 | CN1CCN(C(=O)C2CC2c2ccccc2)CC12CCC(=O)N(CC(=O)O)CC2 (stereo not shown) [AC1032, 2-(1-methyl-10-oxo-4-(2-phenylcyclopropane-1-carbonyl)-1,4,9-triaza-spiro[5.6]dodecan-9-yl)-acetic acid]
16 | 131 | COC(C)(C(=O)N1CCN(C)C2(CCC(=O)N(CC(=O)O)CC2)C1)c1ccccc1 (stereo not shown) [AC1063, 2-(4-(2-methoxy-2-phen-ylpropanoyl)-1-methyl-10-oxo-1,4,9-triazaspiro-[5.6]dodecan-9-yl)acetic acid]
17 | 91.7 | CN1CCN(C(=O)NC2CCC2)CC12CCC(=O)N(CC(=O)O)CC2 (stereo not shown) [AC1049, 2-(4-(cyclobutylcarbam-oyl)-1-methyl-10-oxo-1,4,9-triazaspiro[5.6]-dodecan-9-yl)acetic acid]
18 | 348 | CN1CCN(C(=O)C2(c3ccc(F)cc3)CC2)CC12CCC(=O)N(CC(=O)O)CC2 (stereo not shown) [AC1045, 2-(4-(1-(4-fluorophenyl)-cyclopropane-1-carbon-yl)-1-methyl-10-oxo-1,4,9-triazaspiro[5.6]-dodecan-9-yl)acetic acid]
19 | 45.4 | CN1CCN(C(=O)[C@H]2CCCN2C(=O)c2ccccc2)CC12CCC(=O)N(CC(=O)O)CC2 (stereo partly drawn) [AC1071, 2-(4-(benzoyl-D-prolyl)-1-methyl-10-oxo-1,4,9-triazaspiro[5.6]dodecan-9-yl)acetic acid]
20 | 116 | CN1CCN(C(=O)C2(O)CCCC2)CC12CCC(=O)N(CC(=O)O)CC2 (stereo not shown) [AC1048, 2-(4-(1-hydroxycyclopen-tane-1-carbonyl)-1-meth-yl-10-oxo-1,4,9-triaza-spiro[5.6]dodecan-9-yl)-acetic acid]

Same assay, conditions: formula (III) compounds; 0.12 nM GST-KLHDC2, 1.7 nM biotinylated 12 aa SelK peptide; triplicate; read-out: KLHDC2 binding activities IC50

Row | IC50 [µM] | Structure (SMILES)
21 | 445 | CC(=O)N1CCc2nc(N3CCN(C)C4(CCC(=O)N(CC(=O)O)CC4)C3)ncc2C1 (stereo not shown) [AC1030, 2-(4-(6-acetyl-5,6,7,8-tetra-hydropyrido[4,3-d]pyrimidin-2-yl)-1-methyl-10-oxo-1,4,9-triazaspiro[5.6]dodecan-9-yl)-acetic acid]
22 | 123 | CN1CCN(c2nccc(C(=O)O)n2)CC12CCC(=O)N(CC(=O)O)CC2 (stereo not shown) [AC1035, 2-(9-(carboxymethyl)-1-meth-yl-10-oxo-1,4,9-triazaspiro-[5.6]dodecan-4-yl)pyrimidine-4-carboxylic acid]
23 | 389 | Cc1nc(N)nc(N2CCN(C)C3(CCC(=O)N(CC(=O)O)CC3)C2)c1Cl (stereo not shown) [AC1031, 2-(4-(2-amino-5-chloro-6-methylpyrimidin-4-yl)-1-methyl-10-oxo-1,4,9-triaza-spiro[5.6]dodecan-9-yl)acetic acid]

Same assay, conditions: formula (IV) compounds; 0.12 nM GST-KLHDC2, 1.7 nM biotinylated 12 aa SelK peptide; triplicate; read-out: KLHDC2 binding activities IC50

Row | Structure (SMILES) | IC50 [µM]
24 | O=C(O)CN1CCC2(CCCN(C(=O)C3CCC3)C2)OCC1=O (stereo not shown) [AC904, 2-(2-(cyclobutanecarbonyl)-9-oxo-7-oxa-2,10-diazaspiro-[5.6]dodecan-10-yl)acetic acid] | 51
25 | C[C@H](C(=O)N1CCC[C@@]2(CCN(CC(=O)O)C(=O)CO2)C1)c1ccccc1 [AC0979, 2-((R)-9-oxo-2-((S)-2-phenyl-propanoyl)-7-oxa-2,10-diaza-spiro[5.6]dodecan-10-yl)acetic acid] | 63.7
26 | C[C@H](C(=O)N1CCC[C@]2(CCN(CC(=O)O)C(=O)CO2)C1)c1ccccc1 [AC0978, 2-((S)-9-oxo-2-((S)-2-phenyl-propanoyl)-7-oxa-2,10-diaza-spiro[5.6]dodecan-10-yl)acetic acid] | 22.1
27 | C[C@@H](C(=O)N1CCCC2(CCN(CC(=O)O)C(=O)CO2)C1)c1ccccc1 (stereo partly drawn) [AC1028, 2-(9-oxo-2-((R)-2-phenylpro-panoyl)-7-oxa-2,10-diaza-spiro[5.6]dodecan-10-yl)acetic acid] | 39.6
28 | CC(C(=O)N1CCCC2(CCN(CC(=O)O)C(=O)CO2)C1)c1ccccc1 (stereo not shown) [AC890, 2-(9-oxo-2-(2-phenylpropano-yl)-7-oxa-2,10-diazaspiro[5.6]-dodecan-10-yl)acetic acid] | 50

Next, values leading:

Row | IC50 [µM] | Structure (SMILES)
29 | 1390 | Cc1nccc(N2CCCC3(CCN(CC(=O)O)C(=O)CO3)C2)n1 (stereo not shown) [AC947, 2-(2-(2-methylpyrimidin-4-yl)-9-oxo-7-oxa-2,10-diazaspiro-[5.6]dodecan-10-yl)acetic acid]
30 | 47.5 | O=C(O)CN1CCC2(CCCN(c3ccnc(N4CCC(O)C4)n3)C2)OCC1=O (stereo not shown) [AC935, 2-(2-(2-(3-hydroxypyrrolidin-1-yl)pyrimidin-4-yl)-9-oxo-7-oxa-2,10-diazaspiro[5.6]-dodecan-10-yl)acetic acid]
31 | 40.1 | O=C(O)CN1CCC2(CCCN(C(=O)C3CCCC3)C2)OCC1=O (stereo not shown) [AC903, 2-(2-(cyclopentanecarbonyl)-9-oxo-7-oxa-2,10-diazaspiro-[5.6]dodecan-10-yl)acetic acid]
